Source: patent publication US20100105664A1, “ORGANIC COMPOUNDS” (priority 2006, published 2010)
Structures can show the parent of a compound that is named as a salt.

The molecules below were run against T1, human MK2 (Homo sapiens, UniProt P49137) (assay: MAPKAPK2 (or MK2) Kinase Assay). Settings: activated MAPKAPK2, Hsp27 peptide substrate, 5 μM ATP, TR-FRET.
T1 construct: made in house
Type: biochemical
Description: MAPKAPK2 (or MK2) Kinase Assay
MAPAPK2 is pre-activated in kinase buffer (25 mM TRIS-HCL, pH 7.5, 25 mM beta-glycerophosphate, 0.1 mM sodium orthovanadate, 25 mM MgCl2, 20 μM DTT) containing 5 μM ATP, 150 μg/ml human MK2 (HPLC purified in house), 30 μg/ml active human p38α (HPLC purified in house) for 30 min at 22° C. For the measurement of compound inhibition on activated MAPAPK2, each reaction contained test compound (10 μl; 0.5% DMSO final) or vehicle control, 250 nM Hsp27 peptide biotinyl-AYSRALSRQLSSGVSEIR—COOH as substrate (10 μl) and pre-activated MAPKAP2 kinase mix (10 μl) containing ATP (5 μM final). To define non-specific, reactions are performed in the absence of substrate. Following incubation at 22° C. for 45 min, kinase reactions are terminated with 125 μM EDTA (10 μl). Samples (10 μl) are transferred to black low volume 384-well plates (Greiner) prior to the detection of phosphorylated substrate by time-resolved fluorescence resonance energy transfer (TR-FRET). Phosphorylated Hsp27 is measured using an antibody mix (10 μl) containing a rabbit anti-phospho-Hsp27 (Ser^82) antibody (2.5 nM, Upstate) in conjunction with an anti-rabbit europium-labeled secondary antibody LANCE Eu-W1024 (2.5 nM; Perkin Elmer) as fluorescence donor along with streptavidin SureLight-APC (6.25 nM; Perkin Elmer) as a fluorescence acceptor. Following incubation at 22° C. for 90 min, plates are measured at 615 and 665 nm using a PHERAstar (BMG Labtech). The 615/665 nm ratio is determined following subtraction of background. Values are expressed as % inhibition using control values. Individual IC50 values of compounds are determined by nonlinear regression after fitting of curves to the experimental data using Excel XL fit 4.0 (Microsoft).
For a number of compounds being identified by their example No. the efficacy is disclosed as being assessable by the above described MK2 kinase assay: […]

T1 sequence (P49137 whole entry): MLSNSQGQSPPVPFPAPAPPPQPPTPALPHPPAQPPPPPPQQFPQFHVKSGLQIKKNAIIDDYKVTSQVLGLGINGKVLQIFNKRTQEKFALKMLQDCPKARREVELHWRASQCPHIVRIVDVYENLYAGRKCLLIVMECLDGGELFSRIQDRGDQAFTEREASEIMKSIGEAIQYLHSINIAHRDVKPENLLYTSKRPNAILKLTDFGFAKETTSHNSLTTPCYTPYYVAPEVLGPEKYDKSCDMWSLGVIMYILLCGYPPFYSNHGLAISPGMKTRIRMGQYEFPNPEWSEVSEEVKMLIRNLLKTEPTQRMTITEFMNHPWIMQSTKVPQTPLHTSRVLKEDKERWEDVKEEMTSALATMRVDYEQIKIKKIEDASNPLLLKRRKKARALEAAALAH

| Structure (SMILES) | IC50 [µM] |
| --- | --- |
| NC(=O)c1cc(-c2ccnc(/C=C/c3ccc(F)cc3)c2)[nH]c1N1CCNCC1 [Example 9, 5-{2-[(E)-2-(4-Fluoro-phenyl)-vinyl]-pyridin-4-yl}-2-piperazin-1-yl-1H-pyrrole-3-carboxylic acid amide] | 0.13 |
| NC(=O)c1cc(-c2ccnc(/C=C/c3ccccc3)c2)[nH]c1N1CCNCC1 [Example 14, 2-Piperazin-1-yl-5-[2-((E)-styryl)-pyridin-4-yl]-1H-pyrrole-3-carboxylic acid amide] | 0.12 |
| NC(=O)c1cc(-c2ccnc(-c3ccc(S(=O)(=O)N4CCOCC4)cc3)c2)[nH]c1N1CCNCC1 [Example 51, 5-{2-[4-(Morpholine-4-sulfonyl)-phenyl]-pyridin-4-yl}-2-piperazin-1-yl-1H-pyrrole-3-carboxylic acid amide] | 0.05 |
| NC(=O)c1cc(-c2ccnc(-c3ccc(C(=O)NC4CCCC4)cc3)c2)[nH]c1N1CCNCC1 [Example 55, 5-[2-(4-Cyclopentylcarbamoyl-phenyl)-pyridin-4-yl]-2-piperazin-1-yl-1H-pyrrole-3-carboxylic acid amide] | 0.26 |
| NC(=O)c1cc(-c2ccnc(/C=C/c3ccc(CN4CCOCC4)cc3)c2)[nH]c1N1CCNCC1 [Example 72, 5-{2-[(E)-2-(4-Morpholin-4-ylmethyl-phenyl)-vinyl]-pyridin-4-yl}-2-piperazin-1-yl-1H-pyrrole-3-carboxylic acid amide hydrobromide] | 0.1 |
| N#Cc1cc(-c2ccnc(/C=C/c3ccc(C(=O)N4CCOCC4)cc3)c2)[nH]c1N1CCNCC1 [Example 75, 5-(2-{(E)-2-[4-(Morpholine-4-carbonyl)-phenyl]-vinyl}-pyridin-4-yl)-2-piperazin-1-yl-1H-pyrrole-3-carbonitrile] | 0.15 |
| NC(=O)c1cc(-c2ccnc(/C=C/c3cccnc3)c2)[nH]c1N1CCNCC1 [Example 81, 2-Piperazin-1-yl-5-[2-((E)-2-pyridin-3-yl-vinyl)-pyridin-4-yl]-1H-pyrrole-3-carboxylic acid amide] | 0.14 |
| NC(=O)c1cc(-c2ccnc(Nc3cccc(S(=O)(=O)N4CCOCC4)c3)c2)[nH]c1N1CCNCC1 [Example 93, 5-{2-[3-(Morpholine-4-sulfonyl)-phenylamino]-pyridin-4-yl}-2-piperazin-1-yl-1H-pyrrole-3-carboxylic acid amide] | 0.09 |
| CN1CCC(Oc2ccc(-c3cc(-c4cc(C#N)c(N5CCNCC5)[nH]4)ccn3)cn2)CC1 [Example 105, 5-[6′-(1-Methyl-piperidin-4-yloxy)-[2,3′]bipyridinyl-4-yl]-2-piperazin-1-yl-1H-pyrrole-3-carbonitrile trifluoroacetate] | 0.07 |
| NC(=O)c1cc(-c2ccnc(-c3ccc(N4CCCCC4)nc3)c2)[nH]c1N1CCNCC1 [Example 109, 2-Piperazin-1-yl-5-(3,4,5,6-tetrahydro-2H-[1,2′;5′,2″]terpyridin-4″-yl)-1H-pyrrole-3-carboxylic acid amide] | 0.16 |
| CN1CCN(c2ccc(-c3cc(-c4cc(C(N)=O)c(N5CCNCC5)[nH]4)ccn3)cn2)CC1 [Example 110, 5-[6′-(4-Methyl-piperazin-1-yl)-[2,3′]bipyridinyl-4-yl]-2-piperazin-1-yl-1H-pyrrole-3-carboxylic acid amide] | 0.15 |
| NC(=O)c1cc(-c2ccnc(-c3ccc(N4CCN(Cc5ccccc5)CC4)nc3)c2)[nH]c1N1CCNCC1 [Example 116, 5-[6′-(4-Benzyl-piperazin-1-yl)-[2,3′]bipyridinyl-4-yl]-2-piperazin-1-yl-1H-pyrrole-3-carboxylic acid amide] | 0.2 |
| N#Cc1cc(-c2ccnc(-c3cnc(N4CCCOCC4)nc3)c2)[nH]c1N1CCNCC1 [Example 118, 5-[2-(2-[1,4]Oxazepan-4-yl-pyrimidin-5-yl)-pyridin-4-yl]-2-piperazin-1-yl-1H-pyrrole-3-carbonitrile trifluoroacetate] | 0.07 |
| Cc1[nH]c(-c2ccnc(/C=C/c3ccc(CN4CCOCC4)cc3)c2)cc1C#N [Example 131, 2-Methyl-5-{2-[(E)-2-(4-morpholin-4-ylmethyl-phenyl)-vinyl]-pyridin-4-yl}-1H-pyrrole-3-carbonitrile] | 0.29 |
| N#Cc1cc(-c2ccnc(/C=C/c3ccccc3)c2)[nH]c1C1CCNCC1 [Example 144, 2-Piperidin-4-yl-5-[2-((E)-styryl)-pyridin-4-yl]-1H-pyrrole-3-carbonitrile] | 0.21 |
| N#Cc1cc(-c2ccnc(/C=C/c3ccccc3)c2)[nH]c1CCN [Example 148, 2-(2-Amino-ethyl)-5-[2-((E)-styryl)-pyridin-4-yl]-1H-pyrrole-3-carbonitrile] | 0.15 |
| NCCc1[nH]c(-c2ccnc(/C=C/c3ccccc3)c2)cc1C(=O)O [Example 155, 2-(2-Amino-ethyl)-5-[2-((E)-styryl)-pyridin-4-yl]-1H-pyrrole-3-carboxylic acid] | 0.08 |
| NC(=O)c1cc(-c2ccnc(/C=C/c3ccccc3)c2)[nH]c1C1=CCNCC1 [Example 170, 5-[2-((E)-Styryl)-pyridin-4-yl]-2-(1,2,3,6-tetrahydro-pyridin-4-yl)-1H-pyrrole-3-carboxylic acid amide] | 0.27 |
